Read-outs that look alike come from different tables or passages of the source.
What was measured:
S. aureus GC 6466 = test: MIC, broth microdilution; details: Staphylococcus aureus
S. aureus GC 1079 = test: MIC, broth microdilution; details: Staphylococcus aureus
E. coli GC 2234 = test: MIC, broth microdilution; details: Escherichia coli
Staph. = test: Range of MIC for Staph. strains, including MRSA; details: Staphylococcus aureus
E. faecalis GC 2267 = test: MIC, broth microdilution; details: Enterococcus faecalis
E. coli GC 2235 = test: MIC, broth microdilution; details: Escherichia coli
E. coli GC 2203 = test: MIC, broth microdilution; details: Escherichia coli
E. coli GC 2272 = test: MIC, broth microdilution; details: Escherichia coli
E. coli GC 4560 = test: MIC, broth microdilution; details: Escherichia coli
E. coli GC 2233 = test: MIC, broth microdilution; details: Escherichia coli
E. faecalis GC 4555 = test: MIC, broth microdilution; details: Enterococcus faecalis
S. aureus GC 6467 = test: MIC, broth microdilution; details: Staphylococcus aureus
E. coli GC 6465 = test: MIC, broth microdilution; details: Escherichia coli
S. typhimurium GC 2172 = test: MIC, broth microdilution; details: Salmonella enterica, TYPHIMURIUM
S. epidermidis GC 4935 = test: MIC, broth microdilution; details: Staphylococcus epidermidis
S. aureus GC 1131 = test: MIC, broth microdilution; details: Staphylococcus aureus
S. pneumoniae* GC 4465 = test: MIC, broth microdilution; details: Streptococcus pneumoniae
E. faecium GC 4556 = test: MIC, broth microdilution; details: Enterococcus faecium
E. coli GC 2231 = test: MIC, broth microdilution; details: Escherichia coli
Experimental: Antimicrobial susceptibility testing. The in vitro activities of the antibiotics are determined by the broth microdilution method as recommended by the National Committee for Clinical Laboratory Standards (NCCLS) (1). Mueller-Hinton II broth (MHBII)(BBL Cockeysville, Md.) is the medium employed in the testing procedures. Microtiter plates containing serial dilutions of each antimicrobial agent are inoculated with each organism to yield the appropriate density (10^5 CFU/ml) in a 100 μl final volume. The plates are incubated for 18-22 hours at 35° C. in ambient air.
Representative compounds were first incubated in mouse serum for an hour prior to the in vitro testing against a panel of selected gram-positive and gram-negative bacteria strains. All compounds were also pre-incubated in water for an hour prior to testing as control.

E. coli GC 2236 = test: MIC, broth microdilution; details: Escherichia coli
[1] = read-out: MINIMAL INHIBITORY CONCENTRATION MIC, pre-incubated in Human Serum
[2] = read-out: MINIMAL INHIBITORY CONCENTRATION MIC, pre-incubated in Mouse Serum
[3] = read-out: MINIMAL INHIBITORY CONCENTRATION MIC, pre-incubated in Water

Measured: MIC

CN(C)c1cc(NC(=O)CN(C(=O)OCOC(=O)C2CCCC2)C(C)(C)C)c(O)c2c1C[C@H]1C[C@H]3[C@H](N(C)C)C(O)=C(C(N)=O)C(=O)[C@@]3(O)C(O)=C1C2=O [Example 46, ({[(2-{[(5aR,6aS,7S,10aS)-9-(aminocarbonyl)-4,7-bis(dimethylamino)-1,8,10a,11-tetrahydroxy-10,12-dioxo-5,5a,6,6a,7,10,10a,12-octahydrotetracen-2-yl]amino}-2-oxoethyl)(tert-butyl)amino]carbonyl}oxy)methyl cyclopentanecarboxylate]
32 µg/mL: S. typhimurium GC 2172; [1]
0.25 to 1 µg/mL: Staph.; MRSA, read-out: Range of MIC, Staph (Mouse Serum) | Staph.; read-out: Minimum inhibitory concentration (MIC), Staph (Human Serum)
0.12 µg/mL: S. pneumoniae* GC 4465; [1] | S. pneumoniae* GC 4465; [2] | S. pneumoniae* GC 4465; [3]
8 µg/mL: E. coli GC 2203; GC2203, read-out: MINIMAL INHIBITORY CONCENTRATION MIC, pre-incubated in Human Serum
1 µg/mL: E. faecalis GC 2267; GC2267, read-out: MINIMAL INHIBITORY CONCENTRATION MIC, pre-incubated in Human Serum | E. coli GC 2272; GC2272, read-out: MINIMAL INHIBITORY CONCENTRATION MIC, pre-incubated in Mouse Serum | E. coli GC 4560; GC4560, read-out: MINIMAL INHIBITORY CONCENTRATION MIC, pre-incubated in Human Serum | S. aureus GC 6467; GC6467, read-out: MINIMAL INHIBITORY CONCENTRATION MIC, pre-incubated in Mouse Serum | S. aureus GC 6467; GC6467, read-out: MINIMAL INHIBITORY CONCENTRATION MIC, pre-incubated in Water | S. epidermidis GC 4935; GC4935, read-out: MINIMAL INHIBITORY CONCENTRATION MIC, pre-incubated in Human Serum | S. epidermidis GC 4935; GC4935, read-out: MINIMAL INHIBITORY CONCENTRATION MIC, pre-incubated in Mouse Serum | E. faecium GC 4556; GC4556, read-out: MINIMAL INHIBITORY CONCENTRATION MIC, pre-incubated in Human Serum | E. faecium GC 4556; GC4556, read-out: MINIMAL INHIBITORY CONCENTRATION MIC, pre-incubated in Water
4 µg/mL: E. coli GC 2234; GC2234, read-out: MINIMAL INHIBITORY CONCENTRATION MIC, pre-incubated in Human Serum | E. coli GC 2235; GC2235, read-out: MINIMAL INHIBITORY CONCENTRATION MIC, pre-incubated in Human Serum | E. coli GC 2272; GC2272, read-out: MINIMAL INHIBITORY CONCENTRATION MIC, pre-incubated in Human Serum | E. coli GC 4560; GC4560, read-out: MINIMAL INHIBITORY CONCENTRATION MIC, pre-incubated in Water | E. coli GC 2233; GC2233, read-out: MINIMAL INHIBITORY CONCENTRATION MIC, pre-incubated in Human Serum | E. coli GC 2231; GC2231, read-out: MINIMAL INHIBITORY CONCENTRATION MIC, pre-incubated in Human Serum | E. coli GC 2236; GC2236, read-out: MINIMAL INHIBITORY CONCENTRATION MIC, pre-incubated in Human Serum
0.25 µg/mL: S. aureus GC 6466; GC6466, read-out: MINIMAL INHIBITORY CONCENTRATION MIC, pre-incubated in Human Serum | S. aureus GC 6466; GC6466, read-out: MINIMAL INHIBITORY CONCENTRATION MIC, pre-incubated in Mouse Serum | S. aureus GC 6466; GC6466, read-out: MINIMAL INHIBITORY CONCENTRATION MIC, pre-incubated in Water
16 µg/mL: E. coli GC 6465; GC6465, read-out: MINIMAL INHIBITORY CONCENTRATION MIC, pre-incubated in Human Serum
0.25 to 2 µg/mL: Staph.; MRSA, read-out: Range of MIC, Staph (Water) | Staph.; read-out: Minimum inhibitory concentration (MIC), Staph (Water)
0.5 µg/mL: S. aureus GC 1079; GC1079, read-out: MINIMAL INHIBITORY CONCENTRATION MIC, pre-incubated in Human Serum | S. aureus GC 1079; GC1079, read-out: MINIMAL INHIBITORY CONCENTRATION MIC, pre-incubated in Mouse Serum | S. aureus GC 1079; GC1079, read-out: MINIMAL INHIBITORY CONCENTRATION MIC, pre-incubated in Water | E. coli GC 2234; GC2234, read-out: MINIMAL INHIBITORY CONCENTRATION MIC, pre-incubated in Mouse Serum | E. faecalis GC 2267; GC2267, read-out: MINIMAL INHIBITORY CONCENTRATION MIC, pre-incubated in Mouse Serum | E. coli GC 2235; GC2235, read-out: MINIMAL INHIBITORY CONCENTRATION MIC, pre-incubated in Mouse Serum | E. coli GC 2203; GC2203, read-out: MINIMAL INHIBITORY CONCENTRATION MIC, pre-incubated in Mouse Serum | E. coli GC 4560; GC4560, read-out: MINIMAL INHIBITORY CONCENTRATION MIC, pre-incubated in Mouse Serum | E. coli GC 2233; GC2233, read-out: MINIMAL INHIBITORY CONCENTRATION MIC, pre-incubated in Mouse Serum | E. faecalis GC 4555; GC4555, read-out: MINIMAL INHIBITORY CONCENTRATION MIC, pre-incubated in Human Serum | E. faecalis GC 4555; GC4555, read-out: MINIMAL INHIBITORY CONCENTRATION MIC, pre-incubated in Mouse Serum | S. aureus GC 6467; GC6467, read-out: MINIMAL INHIBITORY CONCENTRATION MIC, pre-incubated in Human Serum | S. aureus GC 1131; GC1131, read-out: MINIMAL INHIBITORY CONCENTRATION MIC, pre-incubated in Human Serum | S. aureus GC 1131; GC1131, read-out: MINIMAL INHIBITORY CONCENTRATION MIC, pre-incubated in Mouse Serum | S. aureus GC 1131; GC1131, read-out: MINIMAL INHIBITORY CONCENTRATION MIC, pre-incubated in Water | E. faecium GC 4556; GC4556, read-out: MINIMAL INHIBITORY CONCENTRATION MIC, pre-incubated in Mouse Serum | E. coli GC 2231; GC2231, read-out: MINIMAL INHIBITORY CONCENTRATION MIC, pre-incubated in Mouse Serum | E. coli GC 2236; GC2236, read-out: MINIMAL INHIBITORY CONCENTRATION MIC, pre-incubated in Mouse Serum
2 µg/mL: E. faecalis GC 2267; GC2267, read-out: MINIMAL INHIBITORY CONCENTRATION MIC, pre-incubated in Water | E. faecalis GC 4555; GC4555, read-out: MINIMAL INHIBITORY CONCENTRATION MIC, pre-incubated in Water | E. coli GC 6465; GC6465, read-out: MINIMAL INHIBITORY CONCENTRATION MIC, pre-incubated in Mouse Serum | S. typhimurium GC 2172; [2] | S. epidermidis GC 4935; GC4935, read-out: MINIMAL INHIBITORY CONCENTRATION MIC, pre-incubated in Water
> 64 µg/mL: E. coli GC 2203; GC2203, read-out: MINIMAL INHIBITORY CONCENTRATION MIC, pre-incubated in Water | E. coli GC 6465; GC6465, read-out: MINIMAL INHIBITORY CONCENTRATION MIC, pre-incubated in Water | S. typhimurium GC 2172; [3]
64 µg/mL: E. coli GC 2234; GC2234, read-out: MINIMAL INHIBITORY CONCENTRATION MIC, pre-incubated in Water | E. coli GC 2235; GC2235, read-out: MINIMAL INHIBITORY CONCENTRATION MIC, pre-incubated in Water | E. coli GC 2272; GC2272, read-out: MINIMAL INHIBITORY CONCENTRATION MIC, pre-incubated in Water | E. coli GC 2233; GC2233, read-out: MINIMAL INHIBITORY CONCENTRATION MIC, pre-incubated in Water | E. coli GC 2231; GC2231, read-out: MINIMAL INHIBITORY CONCENTRATION MIC, pre-incubated in Water | E. coli GC 2236; GC2236, read-out: MINIMAL INHIBITORY CONCENTRATION MIC, pre-incubated in Water
